From ChEMBL document CHEMBL1145073, “DNA binding ligands targeting drug-resistant bacteria: structure, activity, and pharmacology” (J Med Chem, 2003)
Converted amounts (≈) assume the structure as drawn.

Key:
[1] = In vitro antimicrobial activity against penicillin-intermediate Streptococcus pneumoniae 49619; assay type: functional
Enterococcus faecalis = experiment: In vitro antimicrobial activity against vancomycin-susceptible Enterococcus faecalis 29212; assay type: functional

| MIC [1] | MIC (Enterococcus faecalis) | SMILES |
| --- | --- | --- |
| > 32 µg/mL | > 32 µg/mL | Cc1nc2ccncc2cc1C(=O)Nc1cc(C(=O)Nc2cc(C(=O)Nc3cc(C(=O)NCCN4CCOCC4)n(C)c3)n(C)c2)n(C)c1 |
| 0.5 µg/mL (≈ 0.779 µM) | 8 µg/mL (≈ 12.5 µM) | Cn1cc(NC(=O)c2cc(NC(=O)c3cc(NC(=O)c4cn5cccnc5n4)cn3C)cn2C)cc1C(=O)NCCN1CCOCC1 |
| 1 µg/mL (≈ 1.46 µM) | > 32 µg/mL | Cn1cc(NC(=O)c2cc(NC(=O)c3cc(NC(=O)c4ccc(OC(F)(F)F)cc4)cn3C)cn2C)cc1C(=O)NCCN1CCOCC1 |
| 32 µg/mL (≈ 53 µM) | > 32 µg/mL | Cn1cc(NC(=O)c2cc(NC(=O)c3cc(NC(=O)c4cccn4C)cn3C)cn2C)cc1C(=O)NCCN1CCOCC1 |
| 0.125 µg/mL (≈ 0.19 µM) | 1 µg/mL (≈ 1.52 µM) | Cn1cc(NC(=O)c2cc(NC(=O)c3cc(NC(=O)c4nsc5ccccc45)cn3C)cn2C)cc1C(=O)NCCN1CCOCC1 |
| 0.031 µg/mL (≈ 0.0484 µM) | 2 µg/mL (≈ 3.12 µM) | Cn1cc(NC(=O)c2cc(NC(=O)c3cc(NC(=O)c4cn5ccccc5n4)cn3C)cn2C)cc1C(=O)NCCN1CCOCC1 |
| > 32 µg/mL | > 32 µg/mL | Cn1cc(NC(=O)c2cc(NC(=O)c3cc(NC(=O)c4cnc5ccccc5n4)cn3C)cn2C)cc1C(=O)NCCN1CCOCC1 |
| 16 µg/mL (≈ 26.6 µM) | 32 µg/mL (≈ 53.3 µM) | Cn1cc(NC(=O)c2cc(NC(=O)c3cc(NC(=O)c4ccccc4)cn3C)cn2C)cc1C(=O)NCCN1CCOCC1 |
| 1 µg/mL (≈ 1.53 µM) | 32 µg/mL (≈ 49.1 µM) | Cn1cc(NC(=O)c2cc(NC(=O)c3cc(NC(=O)c4ccc5ccccc5n4)cn3C)cn2C)cc1C(=O)NCCN1CCOCC1 |
| 4 µg/mL (≈ 5.27 µM) | 8 µg/mL (≈ 10.5 µM) | Cn1cc(NC(=O)c2cc(NC(=O)c3cc(NC(=O)c4sc5cc(C(F)(F)F)ccc5c4Cl)cn3C)cn2C)cc1C(=O)NCCN1CCOCC1 |
| 4 µg/mL (≈ 6.65 µM) | > 32 µg/mL | Cn1cc(NC(=O)c2cc(NC(=O)c3cc(NC(=O)c4cccnc4)cn3C)cn2C)cc1C(=O)NCCN1CCOCC1 |
| 8 µg/mL (≈ 12.2 µM) | 32 µg/mL (≈ 48.9 µM) | Cn1cc(NC(=O)c2cc(NC(=O)c3cc(NC(=O)c4cc5ccccc5n4C)cn3C)cn2C)cc1C(=O)NCCN1CCOCC1 |
| 8 µg/mL (≈ 13.5 µM) | > 32 µg/mL | Cn1cc(NC(=O)c2cc(NC(=O)c3cc(NC(=O)c4ccoc4)cn3C)cn2C)cc1C(=O)NCCN1CCOCC1 |
| 2 µg/mL (≈ 3.1 µM) | 16 µg/mL (≈ 24.8 µM) | Cn1cc(NC(=O)c2cc(NC(=O)c3cc(NC(=O)c4ccc5c(c4)OCO5)cn3C)cn2C)cc1C(=O)NCCN1CCOCC1 |
| 2 µg/mL (≈ 2.89 µM) | > 32 µg/mL | Cn1cc(NC(=O)c2cc(NC(=O)c3cc(NC(=O)c4cc5cccc(Cl)c5s4)cn3C)cn2C)cc1C(=O)NCCN1CCOCC1 |
| 0.25 µg/mL (≈ 0.383 µM) | 4 µg/mL (≈ 6.13 µM) | Cn1cc(NC(=O)c2cc(NC(=O)c3cc(NC(=O)c4ccc5cnccc5n4)cn3C)cn2C)cc1C(=O)NCCN1CCOCC1 |
| 0.5 µg/mL (≈ 0.688 µM) | 8 µg/mL (≈ 11 µM) | Cn1cc(NC(=O)c2cc(NC(=O)c3cc(NC(=O)c4sc5cc(F)c(F)cc5c4Cl)cn3C)cn2C)cc1C(=O)NCCN1CCOCC1 |
| 2 µg/mL (≈ 2.79 µM) | > 32 µg/mL | Cn1cc(NC(=O)c2cc(NC(=O)c3cc(NC(=O)c4sc(-c5ccccc5)cc4Cl)cn3C)cn2C)cc1C(=O)NCCN1CCOCC1 |
| 0.25 µg/mL (≈ 0.345 µM) | 32 µg/mL (≈ 44.1 µM) | Cn1cc(NC(=O)c2cc(NC(=O)c3cc(NC(=O)c4sc5cc(Cl)ccc5c4Cl)cn3C)cn2C)cc1C(=O)NCCN1CCOCC1 |
| 16 µg/mL (≈ 24.6 µM) | > 32 µg/mL | Cn1cc(NC(=O)c2cc(NC(=O)c3cc(NC(=O)c4cnc5ccccc5c4)cn3C)cn2C)cc1C(=O)NCCN1CCOCC1 |
| 0.5 µg/mL (≈ 0.748 µM) | 16 µg/mL (≈ 23.9 µM) | Cn1cc(NC(=O)c2cc(NC(=O)c3cc(NC(=O)c4cc5ccccc5oc4=O)cn3C)cn2C)cc1C(=O)NCCN1CCOCC1 |
| > 32 µg/mL | > 32 µg/mL | Cn1cc(NC(=O)c2cc(NC(=O)c3cc(NC(=O)c4ccccn4)cn3C)cn2C)cc1C(=O)NCCN1CCOCC1 |
| 0.125 µg/mL (≈ 0.171 µM) | 16 µg/mL (≈ 21.9 µM) | Cn1cc(NC(=O)c2cc(NC(=O)c3cc(NC(=O)c4sc5cc(Cl)sc5c4Cl)cn3C)cn2C)cc1C(=O)NCCN1CCOCC1 |
| 2 µg/mL (≈ 3.3 µM) | 16 µg/mL (≈ 26.4 µM) | Cn1cc(NC(=O)c2cc(NC(=O)c3cc(NC(=O)c4cccs4)cn3C)cn2C)cc1C(=O)NCCN1CCOCC1 |
